Experiments:
rats with SAH = experiment: Effect on rCBF after SAH, drug given before SAH; type: in vivo, rat; details: rats pretreated before SAH, 17-ODYA 1.5 nmol intrathecally
Procedure: Animals. Experiments were performed on male Sprague-Dawley rats (9-12 weeks old), purchased from Harlan Sprague-Dawley, Inc. (Indianapolis, Ind.). The rats were housed in an Animal Care Facility at the Medical College of Wisconsin, which is approved by the American Association for the Accreditation of Laboratory Animal Care. All protocols involving animals received approval by the Animal Care Committee of the Medical College of Wisconsin.
(§1) Surgical preparation. Rats were anesthetized with ketamine (Ketaject® 20 mg/kg i.m.) and thiobutabarbital sodium (Inactin® 50 mg/kg i.p.). A cannula was placed in the trachea and the rats were artificially ventilated using a small animal ventilator (SAR-830, CWE, Inc., Ardmore, Pa.) with a mixture of 30% O2 in N2. The femoral vein was cannulated for the infusion of drug and the rats received an i.v. infusion of 0.9% NaCl solution at a rate of […] to replace fluid losses. The femoral artery was cannulated for measurement of mean arterial pressure (MAP) and arterial blood gases. Endtidal partial pressure of carbon dioxide (pCO2) was controlled at 38 mmHg by adjusting the minute ventilation according to the reading of an CO2 analyzer (Capstar-100 IITC, Inc., Woodland Hills, Calif.). Blood samples were collected at the beginning and end of the experiment and analyzed using a blood gas analyzer (ABL 300, Radiometer, Copenhagen, Denmark) to validate the endtidal pCO2 readings. Anesthesia was maintained by administering additional amounts of thiobutabarbital (8 mg/kg i.v.) as needed. Rectal body temperature was maintained at 37±1° C.
Induction of SAH and measurement of cerebral blood flow. SAH was induced by injection of 0.3 ml autologous arterial blood into the Cisterna Magna using a modification of a posterior cranio-cervical approach of a model of SAH. Delgado T J et al., Stroke 16: 595-602 (1985); Solomon R A et al., Stroke 16: 58-64 (1985). The head of the rat was placed in a stereotactic head holder and the atlanto-occipital membrane was exposed by bluntly separating the overlying neck muscles in the midline. The occipital bone and the atlas were visualized. A 30 gauge needle attached to PE-10 was inserted using a stereomicroscope into the Cistema Magna by penetrating the atlanto-occipital membrane. Then, 0.3 ml of freshly drawn unheparinized arterial blood was injected into the Cistema Magna at a rate of 35 μl/min using a syringe pump. This created a massive SAH that was confirmed in all rats at autopsy. Blood was found overlying the cerebello-medullary junction posteriorly and around the basal artery and the vessels of the Circle of Willis.
Cerebral blood flow (CBF) was continuously measured using laser Doppler flowmetry through a thinned cranial window. […] A PF 103 laser Doppler flow (LDF) probe was positioned over the cranial window and CBF was monitored using a PF-3 laser Doppler flowmeter (Perimed, Stockholm, Sweden).
Other animals received 17-ODYA (1.5 nmol) or vehicle in a volume of 50 μl that was injected directly into the Cistema Magna using a micromanipulator and a 30 gauge needle. The CBF recorded over the last 5 minutes of the control period immediately before initiation of SAH served as the control value. […] CBF was recorded for 2 min intervals at 10, 20, 30, 60, 90 and 120 minutes after completion of the injection of the blood. The CBF data are expressed as percentage change from control.

[1] = Physiological parameters (MAP, endtidal pCO2) during the SAH experiment; type: in vivo, rat; details: rats, any time
Procedure: as §1

[2] = system: EET formation in rat renal microsomes; experiment: EET formation in rat renal microsomes ([3H]-AA, Example 3); type: biochemical; details: highest concentration studied, 1,000 ng/ml or 5 μM
Procedure: All procedure was carried out at 4° C. Renal cortex was pooled from twenty male SHR rats (6 weeks of age). They were homogenized extensively in lysis buffer (20 mM HEPES, pH 7.4, 1 mM EDTA, 100 μM p-(amidinophenyl)metanesulfonyl fluoride and 250 mM sucrose), and centrifuged at 16,000×g for 10 min. Supernatant was further centrifuged at 16,000×g for 30 min. Soluble fraction was collected and centrifuged at 200,000×g for 30 min. The resulting pellet was suspended in 50 mM MOPS buffer.
The reaction was terminated by adding formic acid and acetonitrile to a final concentration of 1% and 50%, respectively.

PGH1 synthase = biological target: T1, PGH1 synthase (Ovis aries, UniProt P05979); experiment: COX activity (conversion of AA to PGE2); type: biochemical, ram; details: 10^−6 M
T1 construct: the purified enzyme from ram seminal vesicles PGH1 synthase; purchased Cayman Chemical Co., Ann Arbor, Mich; host or cells: ram seminal vesicles (tissue-purified)
T1 sequence (P05979 25-600): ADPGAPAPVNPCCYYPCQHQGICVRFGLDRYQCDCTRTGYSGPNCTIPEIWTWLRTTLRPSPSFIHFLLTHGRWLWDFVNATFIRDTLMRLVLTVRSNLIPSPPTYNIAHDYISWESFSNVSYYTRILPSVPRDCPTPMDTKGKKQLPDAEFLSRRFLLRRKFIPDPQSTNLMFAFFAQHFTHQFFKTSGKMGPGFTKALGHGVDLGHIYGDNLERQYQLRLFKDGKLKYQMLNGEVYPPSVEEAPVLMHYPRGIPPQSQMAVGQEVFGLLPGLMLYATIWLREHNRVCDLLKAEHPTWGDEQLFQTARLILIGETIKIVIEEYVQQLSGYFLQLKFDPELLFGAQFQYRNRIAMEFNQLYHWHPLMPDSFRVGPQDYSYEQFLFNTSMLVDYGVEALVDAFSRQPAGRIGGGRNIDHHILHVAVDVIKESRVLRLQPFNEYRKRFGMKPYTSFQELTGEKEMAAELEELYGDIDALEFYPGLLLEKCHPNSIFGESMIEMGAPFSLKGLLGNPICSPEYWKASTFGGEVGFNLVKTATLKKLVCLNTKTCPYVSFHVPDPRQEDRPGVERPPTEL
Procedure: Reaction mixtures were incubated at 37° C. for 2 min before the addition of AA and for 2 min thereafter. All samples were run in duplicate. Amounts of PGE2 were determined by EIA after 100-400 times dilution with Tris buffer.

## CCCCc1ccc(N=CNO)c(C)c1 [HET0016, N-hydroxy-N′-(4-butyl-2-methylphenyl)-formamidine]
Rats with SAH; HET0016 10 mg/kg i.v. 30 min prior
  reduction of the initial fall in rCBF at 10 min: about 40%
Rats with SAH; HET0016 10 mg/kg i.v.
  time after induction of SAH within which rCBF recovered fully to values not different from control: ≤ 60 min
[1]
  MAP (blood pressure) versus vehicle: no difference
  endtidal pCO2 versus vehicle: no significant differences
[2]
  EET formation: did not inhibit
PGH1 synthase
  inhibition at 1 µM: 20%

From patent US7307101B2, “Use of 20-HETE synthesizing enzyme inhibitors as therapy for cerebral vascular disease” (MCW Research Foundation, Inc., priority 2000, dated 2007)
